# Results taken from patent US10597388B2, “Pyridazinone herbicides” (FMC CORPORATION, priority 2014, dated 2020).
# Legend:
# Assay in all cases: Test D controlled growth environment herbicide test, pre- and postemergence
# Assay type in all cases: in vivo
# [1] = test system: chickweed (common chickweed, Stellaria media)
# Outline: (§1)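 Species sown in silt loam and sprayed preemergence, or grown in peat-based medium to 2–18 cm (1- to 4-leaf stage) and sprayed postemergence, with compounds in non-phytotoxic solvent plus surfactant. Visual injury scored versus controls after 14–21 d in a controlled environment, 0 (no effect) to 100 (complete control).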
# kochia (Kochia scoparia) = test system: kochia (Kochia scoparia)
# Outline: as §1
# [2] = test system: lambsquarters (Chenopodium album)
# Outline: as §1
# [3] = test system: wheat, winter (winter wheat, Triticum aestivum)
# Outline: as §1
# [4] = test system: Russian thistle (Salsola kali)
# Outline: as §1
# [5] = test system: bromegrass, downy (downy bromegrass, Bromus tectorum)
# Outline: as §1
# [6] = test system: field poppy (Papaver rhoeas)
# Outline: as §1
# [7] = test system: galium (catchweed bedstraw, Galium aparine)
# Outline: as §1
# [8] = test system: barley, winter (winter barley, Hordeum vulgare)
# Outline: as §1
# [9] = test system: speedwell (bird's-eye speedwell, Veronica persica)
# Outline: as §1
# [10] = test system: deadnettle (henbit deadnettle, Lamium amplexicaule)
# Outline: as §1
# [11] = test system: windgrass (Apera spica-venti)
# Outline: as §1
# [12] = test system: mustard, wild (wild mustard, Sinapis arvensis)
# Outline: as §1
# [13] = Postemergence, 31 g ai/ha, scale 0 to 100 (0 no effect, 100 complete control)
# [14] = Postemergence, 125 g ai/ha, visual rating on scale 0 (no effect) to 100 (complete control), 14 to 21 d
# [15] = Postemergence, 250 g ai/ha, scale 0 to 100 (0 no effect, 100 complete control)
# [16] = Preemergence, 125 g ai/ha, scale 0 to 100 (0 no effect, 100 complete control)
# [17] = Preemergence, 250 g ai/ha, scale 0 to 100 (0 no effect, 100 complete control)
# [18] = postemergence, 62 g ai/ha, scale 0 to 100, 0 no effect, 100 complete control
# [19] = Preemergence, 62 g ai/ha, scale 0 to 100 (0 no effect, 100 complete control)
smiles,measurement,setting,value
Cc1nn(C)c(=O)c(-c2c(C)sc3ccc(Cl)cc23)c1O [Compound 104],Chickweed plant response rating,[1]; [13],95
same,"Plant response rating, Chickweed",[1]; [14],100
same,"Plant response rating, Chickweed",[1]; [15],100
same,"Plant response rating (scale of 0 to 100), Chickweed","[1]; Preemergence, 31 g ai/ha",100
same,"Plant response rating (scale of 0 to 100), Chickweed","[1]; Preemergence, 62 g ai/ha",100
same,"Plant response rating, Chickweed",[1]; [16],95
same,"Plant response rating, Chickweed",[1]; [17],100
same,"Plant response rating, Chickweed",[1]; [18],100
same,Kochia plant response rating,kochia (Kochia scoparia); [13],95
same,"Plant response rating, Kochia",kochia (Kochia scoparia); [14],100
same,"Plant response rating, Kochia",kochia (Kochia scoparia); [15],100
same,"Plant response rating (scale of 0 to 100), Kochia","kochia (Kochia scoparia); Preemergence, 31 g ai/ha",30
same,"Plant response rating (scale of 0 to 100), Kochia","kochia (Kochia scoparia); Preemergence, 62 g ai/ha",75
same,"Plant response rating, Kochia",kochia (Kochia scoparia); [16],95
same,"Plant response rating, Kochia",kochia (Kochia scoparia); [17],100
same,"Plant response rating, Kochia",kochia (Kochia scoparia); [18],95
same,Lambsquarters plant response rating,[2]; [13],95
same,"Plant response rating, Lambsquarters",[2]; [14],100
same,"Plant response rating, Lambsquarters",[2]; [15],100
same,"Plant response rating (scale of 0 to 100), Lambsquarters","[2]; Preemergence, 31 g ai/ha",75
same,"Plant response rating (scale of 0 to 100), Lambsquarters","[2]; Preemergence, 62 g ai/ha",100
same,"Plant response rating, Lambsquarters",[2]; [16],100
same,"Plant response rating, Lambsquarters",[2]; [17],100
same,"Plant response rating, Lambsquarters",[2]; [18],100
same,"Wheat, Winter plant response rating",[3]; [13],5
same,"Plant response rating, Wheat, Winter",[3]; [14],20
same,"Plant response rating, Wheat, Winter",[3]; [15],25
same,"Plant response rating (scale of 0 to 100), Wheat, Winter","[3]; Preemergence, 31 g ai/ha",0
same,"Plant response rating (scale of 0 to 100), Wheat, Winter","[3]; Preemergence, 62 g ai/ha",0
same,"Plant response rating, Wheat, Winter",[3]; [16],5
same,"Plant response rating, Wheat, Winter",[3]; [17],15
same,"Plant response rating, Wheat, Winter",[3]; [18],15
same,Russian Thistle plant response rating,[4]; [13],55
same,"Plant response rating, Russian Thistle",[4]; [14],65
same,"Plant response rating, Russian Thistle",[4]; [15],85
same,"Plant response rating (scale of 0 to 100), Russian Thistle","[4]; Preemergence, 31 g ai/ha",0
same,"Plant response rating (scale of 0 to 100), Russian Thistle","[4]; Preemergence, 62 g ai/ha",10
same,"Plant response rating, Russian Thistle",[4]; [16],55
same,"Plant response rating, Russian Thistle",[4]; [17],75
same,"Plant response rating, Russian Thistle",[4]; [18],60
same,"Bromegrass, Downy plant response rating",[5]; [13],20
same,"Plant response rating, Bromegrass, Downy",[5]; [14],55
same,"Plant response rating, Bromegrass, Downy",[5]; [15],65
same,"Plant response rating (scale of 0 to 100), Bromegrass, Downy","[5]; Preemergence, 31 g ai/ha",0
same,"Plant response rating, Bromegrass, Downy",[5]; [19],65
same,"Plant response rating, Bromegrass, Downy",[5]; [16],65
same,"Plant response rating, Bromegrass, Downy",[5]; [17],85
same,"Plant response rating, Bromegrass, Downy",[5]; [18],30
same,Field Poppy plant response rating,[6]; [13],15
same,"Plant response rating, Field Poppy",[6]; [14],75
same,"Plant response rating, Field Poppy",[6]; [15],80
same,"Plant response rating (scale of 0 to 100), Field Poppy","[6]; Preemergence, 31 g ai/ha",0
same,"Plant response rating (scale of 0 to 100), Field Poppy","[6]; Preemergence, 62 g ai/ha",100
same,"Plant response rating, Field Poppy",[6]; [16],100
same,"Plant response rating, Field Poppy",[6]; [17],100
same,"Plant response rating, Field Poppy",[6]; [18],65
same,Galium plant response rating,[7]; [13],85
same,"Plant response rating, Galium",[7]; [14],100
same,"Plant response rating, Galium",[7]; [15],100
same,"Plant response rating (scale of 0 to 100), Galium","[7]; Preemergence, 31 g ai/ha",65
same,"Plant response rating (scale of 0 to 100), Galium","[7]; Preemergence, 62 g ai/ha",95
same,"Plant response rating, Galium",[7]; [16],100
same,"Plant response rating, Galium",[7]; [17],100
same,"Plant response rating, Galium",[7]; [18],90
same,"Barley, Winter plant response rating",[8]; [13],0
same,"Plant response rating, Barley, Winter",[8]; [14],10
same,"Plant response rating, Barley, Winter",[8]; [15],15
same,"Plant response rating (scale of 0 to 100), Barley, Winter","[8]; Preemergence, 31 g ai/ha",0
same,"Plant response rating, Barley, Winter",[8]; [19],0
same,"Plant response rating, Barley, Winter",[8]; [16],10
same,"Plant response rating, Barley, Winter",[8]; [17],20
same,"Plant response rating, Barley, Winter",[8]; [18],10
same,Speedwell plant response rating,[9]; [13],30
same,"Plant response rating, Speedwell",[9]; [14],55
same,"Plant response rating, Speedwell",[9]; [15],70
same,"Plant response rating, Speedwell",[9]; [18],35
same,Deadnettle plant response rating,[10]; [13],45
same,"Plant response rating, Deadnettle",[10]; [14],70
same,"Plant response rating, Deadnettle",[10]; [15],85
same,"Plant response rating (scale of 0 to 100), Deadnettle","[10]; Preemergence, 31 g ai/ha",65
same,"Plant response rating (scale of 0 to 100), Deadnettle","[10]; Preemergence, 62 g ai/ha",80
same,"Plant response rating, Deadnettle",[10]; [16],80
same,"Plant response rating, Deadnettle",[10]; [17],100
same,"Plant response rating, Deadnettle",[10]; [18],50
same,Windgrass plant response rating,[11]; [13],55
same,"Plant response rating, Windgrass",[11]; [14],85
same,"Plant response rating, Windgrass",[11]; [15],85
same,"Plant response rating (scale of 0 to 100), Windgrass","[11]; Preemergence, 31 g ai/ha",70
same,"Plant response rating (scale of 0 to 100), Windgrass","[11]; Preemergence, 62 g ai/ha",75
same,"Plant response rating, Windgrass",[11]; [16],80
same,"Plant response rating, Windgrass",[11]; [17],100
same,"Plant response rating, Windgrass",[11]; [18],75
same,"Mustard, Wild plant response rating",[12]; [13],70
same,"Plant response rating, Mustard, Wild",[12]; [14],85
same,"Plant response rating, Mustard, Wild",[12]; [15],90
same,"Plant response rating (scale of 0 to 100), Mustard, Wild","[12]; Preemergence, 31 g ai/ha",10
same,"Plant response rating (scale of 0 to 100), Mustard, Wild","[12]; Preemergence, 62 g ai/ha",70
same,"Plant response rating, Mustard, Wild",[12]; [16],75
same,"Plant response rating, Mustard, Wild",[12]; [17],95
same,"Plant response rating, Mustard, Wild",[12]; [18],75
